Laboratory results as given in ChEMBL document CHEMBL3407331, “Discovery of AM-7209, a potent and selective 4-amidobenzoic acid inhibitor of the MDM2-p53 interaction” (J Med Chem, 2014).

Experiments:
CYP3A4 [1] = molecular target: T1, CYP3A4 (Homo sapiens, UniProt P08684); experiment: Time-dependent inhibition of CYP3A4 (unknown origin) assessed as remaining activity at 10 uM after 30 mins; format: ADME; settings: read-out: Activity
CYP3A4 [2] = molecular target: T1, CYP3A4; experiment: Inhibition of CYP3A4 (unknown origin) at 3 uM; format: ADME
PXR (NR1I2) = molecular target: T2, PXR (NR1I2) (Homo sapiens, UniProt O75469); experiment: Activation of human PXR at 2 uM relative to control; format: ADME; settings: read-out: Activity
T2 sequence (O75469 whole entry): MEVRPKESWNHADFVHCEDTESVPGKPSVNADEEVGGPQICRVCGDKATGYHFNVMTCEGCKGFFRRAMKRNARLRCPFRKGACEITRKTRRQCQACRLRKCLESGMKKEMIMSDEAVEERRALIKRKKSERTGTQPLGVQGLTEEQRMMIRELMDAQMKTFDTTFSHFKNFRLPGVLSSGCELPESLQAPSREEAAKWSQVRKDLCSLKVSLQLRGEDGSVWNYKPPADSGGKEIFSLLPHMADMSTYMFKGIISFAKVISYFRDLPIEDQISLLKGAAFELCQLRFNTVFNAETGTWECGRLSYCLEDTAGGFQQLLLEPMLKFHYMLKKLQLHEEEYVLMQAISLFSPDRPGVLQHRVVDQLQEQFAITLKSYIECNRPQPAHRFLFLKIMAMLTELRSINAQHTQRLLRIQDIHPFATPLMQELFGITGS

SJSA-1 = experiment: cells; settings: Homo sapiens, SJSA-1, 16 h

T1 sequence (P08684 whole entry): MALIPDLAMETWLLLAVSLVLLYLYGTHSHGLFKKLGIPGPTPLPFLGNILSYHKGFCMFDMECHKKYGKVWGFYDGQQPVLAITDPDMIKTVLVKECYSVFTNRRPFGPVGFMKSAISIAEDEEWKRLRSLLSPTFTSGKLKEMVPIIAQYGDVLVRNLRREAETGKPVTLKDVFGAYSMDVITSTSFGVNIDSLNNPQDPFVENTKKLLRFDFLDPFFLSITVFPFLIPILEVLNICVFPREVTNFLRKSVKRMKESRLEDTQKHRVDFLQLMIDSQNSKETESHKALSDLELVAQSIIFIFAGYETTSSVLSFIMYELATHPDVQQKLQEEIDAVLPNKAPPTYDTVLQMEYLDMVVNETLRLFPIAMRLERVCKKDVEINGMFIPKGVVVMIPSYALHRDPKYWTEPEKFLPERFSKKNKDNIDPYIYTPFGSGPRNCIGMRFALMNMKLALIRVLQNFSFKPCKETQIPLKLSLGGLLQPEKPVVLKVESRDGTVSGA

Structure (SMILES)	activity at 0.5 h, 10 µM (CYP3A4 [1])	inhibition at 3 µM (CYP3A4 [2])	activity at 2 µM (PXR (NR1I2))	IC50 (SJSA-1)
CC(C)(C)S(=O)(=O)C[C@H](C1CC1)N1C(=O)[C@@](C)(CC(=O)Nc2ccc(C(=O)O)cc2)C[C@H](c2cccc(Cl)c2)[C@H]1c1ccc(Cl)cc1	78%	< 10%	0%	2.9 nM
CC(C)(C)S(=O)(=O)C[C@H](C1CC1)N1C(=O)[C@@](C)(CC(=O)Nc2ccc(C#N)cc2)C[C@H](c2cccc(Cl)c2)[C@H]1c1ccc(Cl)cc1	–	–	–	138 nM
CC(C)(C)S(=O)(=O)C[C@H](C1CC1)N1C(=O)[C@@](C)(CC(=O)Nc2cccc(C(=O)O)c2)C[C@H](c2cccc(Cl)c2)[C@H]1c1ccc(Cl)cc1	–	–	–	9.7 nM
CC(C)(C)S(=O)(=O)C[C@H](C1CC1)N1C(=O)[C@@](C)(CC(=O)N[C@H]2CC[C@@H](C(=O)O)CC2)C[C@H](c2cccc(Cl)c2)[C@H]1c1ccc(Cl)cc1	–	–	–	17 nM
COc1cc(NC(=O)C[C@@]2(C)C[C@H](c3cccc(Cl)c3)[C@@H](c3ccc(Cl)cc3)N([C@H](CS(=O)(=O)C(C)(C)C)C3CC3)C2=O)ccc1C(N)=O	–	–	–	15 nM
CC(C)(C)S(=O)(=O)C[C@H](C1CC1)N1C(=O)[C@@](C)(CC(=O)Nc2ccc(C(=O)O)cn2)C[C@H](c2cccc(Cl)c2)[C@H]1c1ccc(Cl)cc1	–	–	–	9 nM
CC(C)(C)S(=O)(=O)C[C@H](C1CC1)N1C(=O)[C@@](C)(CC(=O)N2CCC(C(=O)O)CC2)C[C@H](c2cccc(Cl)c2)[C@H]1c1ccc(Cl)cc1	–	–	–	11.7 nM
CC(C)(C)S(=O)(=O)C[C@H](C1CC1)N1C(=O)[C@@](C)(CC(=O)N[C@H]2C[C@@H](C(=O)O)C2)C[C@H](c2cccc(Cl)c2)[C@H]1c1ccc(Cl)cc1	–	–	–	22 nM
CC(C)(C)S(=O)(=O)C[C@H](C1CC1)N1C(=O)[C@@](C)(CC(=O)N[C@H]2CC[C@H](C(=O)O)CC2)C[C@H](c2cccc(Cl)c2)[C@H]1c1ccc(Cl)cc1	–	–	–	7.5 nM
COc1cc(NC(=O)C[C@@]2(C)C[C@H](c3cccc(Cl)c3F)[C@@H](c3ccc(Cl)cc3)N([C@H](CS(=O)(=O)C(C)(C)C)C3CC3)C2=O)ccc1C(=O)O	72%	14%	0%	–
CC1(C(=O)O)CCN(C(=O)C[C@@]2(C)C[C@H](c3cccc(Cl)c3)[C@@H](c3ccc(Cl)cc3)N([C@H](CS(=O)(=O)C(C)(C)C)C3CC3)C2=O)CC1	–	–	–	6.8 nM
CC(C)(C)S(=O)(=O)C[C@H](C1CC1)N1C(=O)[C@@](C)(CC(=O)N2CC(C(=O)O)C2)C[C@H](c2cccc(Cl)c2)[C@H]1c1ccc(Cl)cc1	–	–	–	46 nM
